Reference: article PMC8036409 (Molecules, 2021)
Values joined by “and” are separate entries in the source; they are usually repeats but may differ in a detail not shown here. Equal entries are not always repeated. Structures can show the parent of a compound that is named as a salt. Where two headings read alike, the source gives them in different places.

Columns and labels:
[1] = biological target: T1, butyrylcholinesterase (BChE) (Homo sapiens, UniProt P06276); assay: Butyrylcholinesterase inhibition, Ellman's assay; type: biochemical; details: for inhibition at 125 µg/mL / inhibition at 500 µg/mL / inhibition at 1000 µg/mL / inhibition at 250 µg/mL: read-out: Percent BChE (Mean ± SEM), %inhibition
Method: (§1) AChE and BChE were used as representative enzymes to determine the anticholinesterase effect of isolated compounds using Ellman’s assay with slight modifications. Sample stocks (5 mg/5 mL in methanol) were prepared and a range of serial dilutions (125, 250, 500, 1000 μg/mL) was made from each of them. Phosphate buffer (6.8 pH) was used for making the enzyme and substrate solutions.

[2] = biological target: T2, acetylcholinesterase (AChE) (Homo sapiens, UniProt P22303); assay: biochemical; details: for inhibition at 250 µg/mL / inhibition at 500 µg/mL / inhibition at 1000 µg/mL / inhibition at 125 µg/mL: read-out: Percent AChE (Mean ± SEM), %inhibition
Method: as §1

[3] = biological target: T1, butyrylcholinesterase (BChE); assay: Butyrylcholinesterase inhibition, Ellman's assay; type: biochemical; details: read-out: Percent BChE (Mean ± SEM), %inhibition
[4] = biological target: α-amylase; assay: α-Amylase inhibition assay (DNS method); type: biochemical; details: for Percent Inhibition of α-Amylase (Mean ± S.E.M): n = 3
Method: The degree of inhibition was assessed by quantifying maltose equivalents using a slightly modified dinitrosalicylic acid (DNS) method. From each of the sample dilutions, 1 mL was pre-incubated with 1 U/mL α-amylase for half an hour. After incubation, 1 mL of 1% of starch solution was added to the mixture and further incubated for 10 min. To stop the reaction, 1 mL DNS reagent was added to the reaction mixture and heated in a boiling water bath for 5 min. […] The absorbance was measured at 540 nm.

[5] = DPPH free radical scavenging assay; details: for DPPH Percent Inhibition (Mean ± S.E.M): n = 3
Method: (§2) The free radical scavenging capacity of the isolated compounds was determined using DPPH and ABTS assays. To prepare the DPPH stock solution, 30 mg of DPPH was dissolved in 100 mL of methanol. Likewise, to prepare ABTS stock solution, 383 mg of 7 mM ABTS and 66.2 mg of 2.45 mM K2S2O8 were taken, each of them was individually dissolved in 100 mL of methanol and mixed together thoroughly. For the free radical development, the solutions were kept in dark for one day. Different dilutions (62.5, 125, 250, 500, 1000 μg/mL) from each of the sample stock solutions (5 mg/5 mL of methanol) were prepared. Each of the dilutions (0.8 mL) was mixed with 0.8 mL of DPPH stock solution and incubated for 15 min and their absorbance was recorded at 515 nm. Likewise, 0.8 mL of each of the same dilutions was mixed with 2 mL of ABTS solution, incubated for 25 min and their absorbance was recorded at 745 nm. The percent scavenging potentials of compounds were calculated using the following equation:(1) Percent scavenging= A−B/A × 100, where A is the absorbance of oxidized stock (DPPH/ABTS) used as control, and B is the absorbance of the sample.

[6] = ABTS free radical scavenging assay; details: for ABTS Percent Inhibition (Mean ± S.E.M): n = 3
Method: as §2

[7] = biological target: T2, acetylcholinesterase (AChE); assay: biochemical; details: read-out: Percent AChE (Mean ± SEM), %inhibition
[8] = biological target: α-glucosidase (Saccharomyces cerevisiae, UniProt P53341); assay: α-Glucosidase inhibition assay; type: biochemical
Method: α-Glucosidase (0.5 unit/mL) was mixed with phosphate buffer (0.1 M, pH 6.9) to make enzyme stock solution. Likewise, a substrate solution (p-nitrophenyl-α-D-glucopyranoside) was also prepared in phosphate buffer. Each of the sample dilutions was mixed with 1 mL of the enzyme solution separately and incubated at 37 °C for 15 min. Sodium carbonate solution (80 µL of 0.2 M) was added to the reaction mixture to stop the reaction, and the absorbance was measured at 405 nm. The % enzyme inhibition was calculated as (5) % inhibition=Control absorbance−Test absorbance /Control absorbance × 100

[9] = read-out: AChE IC50 (converted)

T2 sequence (P22303 32-614, species assumed): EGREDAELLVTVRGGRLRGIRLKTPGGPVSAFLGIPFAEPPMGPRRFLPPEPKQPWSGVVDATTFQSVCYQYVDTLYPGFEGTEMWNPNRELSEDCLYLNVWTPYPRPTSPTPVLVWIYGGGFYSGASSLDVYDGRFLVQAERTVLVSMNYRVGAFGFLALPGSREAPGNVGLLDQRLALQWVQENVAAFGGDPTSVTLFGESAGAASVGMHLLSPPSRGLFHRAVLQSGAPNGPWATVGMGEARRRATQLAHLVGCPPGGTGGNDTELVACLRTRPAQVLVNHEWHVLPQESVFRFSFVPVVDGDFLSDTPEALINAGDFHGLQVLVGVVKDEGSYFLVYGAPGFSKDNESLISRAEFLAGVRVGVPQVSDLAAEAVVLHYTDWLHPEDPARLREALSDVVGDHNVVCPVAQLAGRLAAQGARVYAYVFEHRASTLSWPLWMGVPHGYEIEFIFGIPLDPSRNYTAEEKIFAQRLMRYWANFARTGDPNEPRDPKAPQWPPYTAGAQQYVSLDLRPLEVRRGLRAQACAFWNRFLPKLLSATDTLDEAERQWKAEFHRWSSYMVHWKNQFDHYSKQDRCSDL
T1 sequence (P06276 29-602, species assumed): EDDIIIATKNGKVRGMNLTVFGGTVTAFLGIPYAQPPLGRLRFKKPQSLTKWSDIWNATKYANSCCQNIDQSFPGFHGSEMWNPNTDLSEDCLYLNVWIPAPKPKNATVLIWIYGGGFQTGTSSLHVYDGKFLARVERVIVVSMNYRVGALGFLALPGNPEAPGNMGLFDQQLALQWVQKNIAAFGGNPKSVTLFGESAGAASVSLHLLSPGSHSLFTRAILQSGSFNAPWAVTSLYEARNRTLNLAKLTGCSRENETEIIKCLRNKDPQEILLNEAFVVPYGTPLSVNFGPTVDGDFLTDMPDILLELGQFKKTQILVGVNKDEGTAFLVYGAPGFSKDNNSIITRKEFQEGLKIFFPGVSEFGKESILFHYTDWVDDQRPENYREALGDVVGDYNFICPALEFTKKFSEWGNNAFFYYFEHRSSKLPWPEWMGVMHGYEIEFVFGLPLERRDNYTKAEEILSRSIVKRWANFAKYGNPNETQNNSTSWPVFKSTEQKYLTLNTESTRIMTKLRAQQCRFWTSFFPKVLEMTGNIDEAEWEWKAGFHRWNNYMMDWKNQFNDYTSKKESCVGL
Sequence of α-glucosidase (P53341 whole entry): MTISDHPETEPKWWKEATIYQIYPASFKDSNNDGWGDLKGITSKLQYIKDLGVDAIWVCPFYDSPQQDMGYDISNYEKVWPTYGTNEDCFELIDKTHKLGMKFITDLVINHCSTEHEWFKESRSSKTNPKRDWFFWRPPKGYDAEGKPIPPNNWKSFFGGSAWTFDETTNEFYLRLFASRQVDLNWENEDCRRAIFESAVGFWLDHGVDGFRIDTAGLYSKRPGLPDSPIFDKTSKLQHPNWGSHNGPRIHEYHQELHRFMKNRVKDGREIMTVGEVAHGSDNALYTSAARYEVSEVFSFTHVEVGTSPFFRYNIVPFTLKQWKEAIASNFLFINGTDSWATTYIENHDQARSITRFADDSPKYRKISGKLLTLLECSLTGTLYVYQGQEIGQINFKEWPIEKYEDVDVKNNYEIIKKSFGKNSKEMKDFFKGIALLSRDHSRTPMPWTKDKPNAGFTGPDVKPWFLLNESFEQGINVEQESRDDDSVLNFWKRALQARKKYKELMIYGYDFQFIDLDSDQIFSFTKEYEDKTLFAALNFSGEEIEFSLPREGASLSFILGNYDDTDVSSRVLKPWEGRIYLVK

SMILES | inhibition at 125 µg/mL [1] [%] | inhibition at 500 µg/mL [1] [%] | IC50 [1] [µM] | α-Amylase IC50 [4] [µg/mL] | Percent Inhibition of α-Amylase (Mean ± S.E.M) ([4]; 62.5 μg/mL) | Percent Inhibition of α-Amylase (Mean ± S.E.M) ([4]; 125 μg/mL) [%] | Percent Inhibition of α-Amylase (Mean ± S.E.M) ([4]; 250 μg/mL) [%] | Percent Inhibition of α-Amylase (Mean ± S.E.M) ([4]; 500 μg/mL) [%] | Percent Inhibition of α-Amylase (Mean ± S.E.M) ([4]; 1000 μg/mL) [%] | DPPH IC50 [5] [µg/mL] | DPPH Percent Inhibition (Mean ± S.E.M) ([5]; 62.5 μg/mL) [%] | DPPH Percent Inhibition (Mean ± S.E.M) ([5]; 250 μg/mL) [%] | DPPH Percent Inhibition (Mean ± S.E.M) ([5]; 500 μg/mL) [%] | DPPH Percent Inhibition (Mean ± S.E.M) ([5]; 1000 μg/mL) | ABTS IC50 [6] [µg/mL] | ABTS Percent Inhibition (Mean ± S.E.M) ([6]; 62.5 μg/mL) [%] | ABTS Percent Inhibition (Mean ± S.E.M) ([6]; 125 μg/mL) [%] | ABTS Percent Inhibition (Mean ± S.E.M) ([6]; 250 μg/mL) [%] | ABTS Percent Inhibition (Mean ± S.E.M) ([6]; 500 μg/mL) [%] | ABTS Percent Inhibition (Mean ± S.E.M) ([6]; 1000 μg/mL) [%] | also measured
COc1ccc2c3c1O[C@H]1C[C@@H](O)C=C[C@@]31CCN(C)C2 [Galanthamine, reference compound] | 64.4 ± 1.85 | 85.1 ± 2.06 |  |  |  |  |  |  |  |  |  |  |  |  |  |  |  |  |  |  | inhibition at 1000 µg/mL [1]: 93.89 ± 0.81%
O=COC(O)O [Compound XI, methanetriol mano formate] |  |  | 815 | 98 | 46.98 ± 2.49 % | 54.13 ± 2.17 | 63.21 ± 1.69 | 70.91 ± 2.11 | 81.90 ± 0.73 | 95 | 46.22 ± 0.60 | 62.13 ± 1.08 | 71.17 ± 2.14 | 80.41 ± 2.16% | 95 | 46.23 ± 1.49 | 54.30 ± 1.15 | 61.04 ± 2.38 | 70.15 ± 1.16 | 79.17 ± 0.53 | inhibition at 250 µg/mL ([2]; 250 μg/mL, n = 3): 64.5 ± 3.04%; inhibition at 500 µg/mL ([2]; 500 μg/mL, n = 3): 71.2 ± 2.42%; inhibition at 1000 µg/mL ([2]; 1000 μg/mL, n = 3): 81.4 ± 2.51%; IC50 [2, 9]: 815 µM; inhibition at 62.5 µg/mL ([3]; 62.5 μg/mL, n = 3): 48 ± 2.06%; inhibition at 125 µg/mL ([1]; 125 μg/mL, n = 3): 57.1 ± 1.31%; inhibition at 250 µg/mL ([1]; 250 μg/mL, n = 3): 63.7 ± 2.24%; inhibition at 500 µg/mL ([1]; 500 μg/mL, n = 3): 71.2 ± 1.31%; inhibition at 1000 µg/mL ([1]; 1000 μg/mL, n = 3): 81.3 ± 1.41%; DPPH Percent Inhibition (Mean ± S.E.M) ([5]; 125 μg/mL): 54.15 ± 1.28%; inhibition at 62.5 µg/mL ([7]; 62.5 μg/mL, n = 3): 48.2 ± 3.34%
CC(C)CCCCC1CC2CC(C)(C)C3C4CC(C)(C)C5CC(O)CC(C)C5C4CC(C)C3C2C1 (stereo not shown) [Compound IX, 5,5,7,7,11,13-hexamethyl-2-(5-methylhexyl)icosahydro-1H-cyclopenta[a]chrysen-9-ol] | 55.4 ± 1.01 | 70.2 ± 0.71 | 186 | 122 | 40.13 ± 1.27 % | 50.61 ± 1.52 | 59.14 ± 0.82 | 65.13 ± 1.43 | 70.21 ± 1.91 | 76 | 47.85 ± 2.61 | 64.11 ± 2.91 | 72.19 ± 2.17 | 80.21 ± 040 ^ns percent | 76 | 47.83 ± 2.26 | 57.19 ± 2.01 | 62.24 ± 2.30 | 71.29 ± 1.11 | 79.23 ± 1.01 | IC50 [2, 9]: 186 µM; inhibition at 250 µg/mL [2]: 63.1 ± 1.51%; inhibition at 500 µg/mL [2]: 71.3 ± 1.37%; inhibition at 1000 µg/mL [2]: 78.11 ± 0.61%; inhibition at 62.5 µg/mL [3]: 45.9 ± 1.26%; inhibition at 250 µg/mL [1]: 63 ± 1.45%; inhibition at 1000 µg/mL [1]: 78 ± 2.62%; inhibition at 62.5 µg/mL [7]: 46 ± 1.71%
C[C@H]1O[C@H](O[C@H]2[C@H](O)[C@@H](O)[C@@H](O[C@H]3[C@H](O)[C@@H](O)C(O)O[C@@H]3CO)O[C@@H]2CO)[C@H](O)[C@@H](O)[C@@H]1N[C@H]1C=C(CO)[C@@H](O)[C@H](O)[C@H]1O (stereo partly shown) [Acarbose, reference compound] |  |  |  |  | 48.13 ± 2.09% | 57.03 ± 1.19 | 66.37 ± 1.18 | 77.11 ± 1.41 | 92.12 ± 0.83 |  |  |  |  |  |  |  |  |  |  |  | Percent Inhibition of α-Glucosidase (Mean ± S.E.M) [8]: 93.72 ± 1.03% and 67.16 ± 1.58% and 58.73 ± 1.09% and 48.76 ± 2.20%
O=C1O[C@H]([C@@H](O)CO)C(O)=C1O [Ascorbic Acid, reference compound] |  |  |  |  |  |  |  |  |  | 35 | 55.12 ± 1.30 | 78.63 ± 1.48 | 87.87 ± 1.64 | 94.14 ± 1.76% | 35 | 55.41 ± 1.39 | 63.30 ± 2.75 | 75.14 ± 3.16 | 83.45 ± 2.26 | 93.07 ± 0.53 | DPPH Percent Inhibition (Mean ± S.E.M) ([5]; 125 μg/mL): 65.35 ± 1.08%
CCCCCCCCCCCCCCCCCCCCCC(=O)O [Compound X, docosanoic acid] | 49.13 ± 0.31 | 62 ± 0.78 | 382 | 125 | 40.01 ± 2.06 ^ns % | 50.11 ± 1.31 | 59.11 ± 2.13 | 65.19 ± 1.28 |  | 95 | 46.17 ± 3.01 | 60.61 ± 0.71 | 69.19 ± 2.27 | 78.81 ± 2.10% | 95 | 46.01 ± 1.06 | 54.13 ± 0.31 | 60.11 ± 1.90 | 68.99 ± 1.88 | 78.03 ± 1.51 | IC50 [2]: 382 µM; inhibition at 125 µg/mL [2]: 49.3 ± 2.32%; inhibition at 250 µg/mL [2]: 56.1 ± 1.51%; inhibition at 500 µg/mL [2]: 62.5 ± 1.37%; inhibition at 1000 µg/mL [2]: 70.1 ± 1.4%; inhibition at 62.5 µg/mL [3]: 43 ± 1.06%; inhibition at 250 µg/mL [1]: 55.5 ± 0.8%; inhibition at 1000 µg/mL [1]: 69.1 ± 2.01%; inhibition at 62.5 µg/mL [7]: 43.2 ± 3.01%
CC(C)C(C(=O)O)c1ccc(C(C(=O)O)C(C)C)cc1 (stereo not shown) [Compound XII] |  |  | 216 | 92 | 47.51 ± 1.19 % | 56.10 ± 2.05 | 66.94 ± 1.11 | 74.25 ± 1.06 | 79.07 ± 1.43 | 60 | 51.02 ± 1.30 | 71.13 ± 1.31 | 78.17 ± 1.04 | 86.54 ±2.16% | 62 | 50.51 ± 1.19 | 60.20 ± 3.05 | 71.44 ± 2.11 | 77.15 ± 1.06 | 86.07 ± 1.43 | inhibition at 125 µg/mL ([2]; 125 μg/mL, n = 3): 61.2 ± 1.71%; inhibition at 250 µg/mL ([2]; 250 μg/mL, n = 3): 69.3 ± 1.38%; inhibition at 500 µg/mL ([2]; 500 μg/mL, n = 3): 76.2 ± 1.01%; inhibition at 1000 µg/mL ([2]; 1000 μg/mL, n = 3): 84.4 ± 1.36%; IC50 [2, 9]: 198 µM; inhibition at 62.5 µg/mL ([3]; 62.5 μg/mL, n = 3): 50.4 ± 1.11%; inhibition at 125 µg/mL ([1]; 125 μg/mL, n = 3): 64.4 ± 1.85%; inhibition at 250 µg/mL ([1]; 250 μg/mL, n = 3): 77.1 ± 2.26%; inhibition at 500 µg/mL ([1]; 500 μg/mL, n = 3): 85.1 ± 2.06%; inhibition at 1000 µg/mL ([1]; 1000 μg/mL, n = 3): 93.89 ± 0.81%; DPPH Percent Inhibition (Mean ± S.E.M) ([5]; 125 μg/mL): 61.75 ± 1.78%; inhibition at 62.5 µg/mL ([7]; 62.5 μg/mL, n = 3): 52.5 ± 1.47%
